Results taken from ChEMBL document CHEMBL1614632, “Trend analysis of a database of intravenous pharmacokinetic parameters in humans for 670 drug compounds” (Drug Metab Dispos, 2008).

Assays:
[1] = clinical; conditions: human, in vivo, iv, Vdss
[2] = clinical; conditions: human, in vivo, iv, t1/2
[3] = clinical; conditions: human, in vivo, iv
[4] = clinical; conditions: human, in vivo, iv; remark: listed apart in the source
[5] = clinical; conditions: human, in vivo, iv, CL

Row | SMILES | Vd [1] [L/kg] | half-life [2] [h] | fraction unbound [3] | MRT [4] [h] | clearance [5] [L/h/kg]
1 | Cc1cn([C@H]2C[C@H](N=[N+]=[N-])[C@@H](CO)O2)c(=O)[nH]c1=O [ZIDOVUDINE] | 1.8 | 1.3 | 0.8 | 1.2 | 
2 | NC(=O)c1ncn([C@@H]2O[C@H](CO)[C@@H](O)[C@H]2O)n1 [RIBAVIRIN] |  | 45 | 1 | 45 | 0.312
3 | C[C@@H](O)[C@H]1C(=O)N2C(C(=O)O)=C(SCCOC(N)=O)S[C@H]12 [Sch-34343] | 0.3 | 0.8 | 0.35 | 0.67 | 
4 | C=CCN1CC[C@]23c4c5ccc(O)c4O[C@H]2C(=O)CC[C@@]3(O)[C@H]1C5 [NALOXONE] | 1.7 | 1.1 | 0.54 | 1.2 | 
5 | COc1ccc(Cl)cc1C(=O)NCCc1ccc(S(=O)(=O)NC(=O)NC2CCCCC2)cc1 [GLYBURIDE] | 0.08 | 2.2 | 0.021 | 1.6 | 
6 | CC(CN1c2ccccc2Sc2ccccc21)N(C)C (stereo not given) [PROMETHAZINE] |  |  | 0.09 |  | 
7 | COc1ccc(-c2nc3ccc(C4=NNC(=O)CC4C)cc3[nH]2)cc1 (stereo not given) [PIMOBENDAN] | 2.04 | 1.8 | 0.024 | 2.2 | 
8 | C[C@@H](c1ncncc1F)[C@](O)(Cn1cncn1)c1ccc(F)cc1F [VORICONAZOLE] | 2.2 | 5.6 | 0.42 | 4.4 | 
9 | CN1CCCC(n2nc(Cc3ccc(Cl)cc3)c3ccccc3c2=O)CC1 (stereo not given) [AZELASTINE] |  | 22 | 0.17 | 27 | 0.54
10 | CCN(C(C)=O)c1cccc(-c2ccnc3c(C#N)cnn23)c1 [ZALEPLON] | 1.3 |  | 0.4 | 1.4 | 
11 | COC(=O)[C@H]1[C@@H](OC(=O)c2ccccc2)C[C@@H]2CC[C@H]1N2C [COCAINE] |  | 0.76 | 0.12 | 1 | 
12 | CC(=O)Nc1c(I)c(NC(C)=O)c(I)c(C(=O)O)c1I [DIATRIZOIC ACID] |  |  | 1 | 2.6 | 0.102
13 | CC(=O)O[C@H]1C[C@@H]2CC[C@@H]3[C@H](CC[C@@]4(C)[C@H]3C[C@H]([N+]3(C)CCCCC3)[C@@H]4OC(C)=O)[C@@]2(C)C[C@@H]1[N+]1(C)CCCCC1 [PANCURONIUM] | 0.2 | 1.9 | 0.09 | 2.2 | 
14 | CC[C@@]1(O)C(=O)OCc2c1cc1n(c2=O)Cc2cc3c(CN(C)C)c(O)ccc3nc2-1 [TOPOTECAN] |  |  | 0.65 |  | 
15 | CCOc1ccc(NC(C)=O)cc1 [PHENACETIN] | 1.4 | 0.92 | 0.47 | 1.1 | 
16 | CCN(CC)CC#CCOC(=O)C(O)(c1ccccc1)C1CCCCC1 (stereo not given) [OXYBUTYNIN] | 0.85 | 7.2 | 0.0034 | 2.7 | 
17 | Nc1ccc(S(=O)(=O)c2ccc(N)cc2)cc1 [DAPSONE] | 0.83 |  | 0.25 | 29 | 
18 | CCCC(=O)OCOC(=O)C1=C(C)NC(C)=C(C(=O)OC)C1c1cccc(Cl)c1Cl (stereo not given) [CLEVIDIPINE] | 0.58 | 0.3 | 0.0038 | 0.07 | 
19 | N[C@@H](Cc1ccc(O)c(O)c1)C(=O)O [LEVODOPA] |  | 1.3 | 0.76 | 1.2 | 
20 | CN(C)CCCN1c2ccccc2CCc2ccccc21 [IMIPRAMINE] | 12 |  | 0.075 |  | 
21 | C[C@]12C=CC(=O)C=C1CC[C@@H]1[C@@H]2[C@@H](O)C[C@@]2(C)[C@H]1CC[C@]2(O)C(=O)CO [PREDNISOLONE] |  |  | 0.25 |  | 
22 | O=c1[nH]cc(F)c(=O)[nH]1 [FLUOROURACIL] |  |  | 0.64 |  | 
23 | N=C(N)c1ccc(C(=O)N[C@@H](Cc2ccc(O)cc2)C(=O)N2CCC(OCC(=O)O)CC2)cc1 [LAMIFIBAN] |  | 2.1 | 0.94 | 2.5 | 
24 | O=C1CN(/N=C/c2ccc([N+](=O)[O-])o2)C(=O)N1 [NITROFURANTOIN] | 0.57 | 0.97 | 0.17 | 0.98 | 
25 | CCCCCN(CCCOC)C(=O)C(CCC(=O)O)NC(=O)c1ccc(Cl)c(Cl)c1 (stereo not given) [LOXIGLUMIDE] | 0.24 | 5.2 |  | 4 | 0.06
26 | O=C(CCCN1CCC(n2c(O)nc3ccccc32)CC1)c1ccc(F)cc1 [BENPERIDOL] | 3.8 | 5.8 |  | 7.5 | 0.498
27 | Cc1ccc(-c2nc3ccc(C)cn3c2CC(=O)N(C)C)cc1 [ZOLPIDEM] | 0.54 | 1.7 |  | 2.1 | 0.258
28 | N[C@H](C(=O)O)[C@@H]1CC(Cl)=NO1 [ACIVICIN] | 0.5 | 9.9 |  | 12 | 0.0414

Row | SMILES | Vd [1] [L/kg] | half-life [2] [h] | fraction unbound [3] | MRT [4] [h] | clearance [5] [L/h/kg]
29 | CN(C)CCN(Cc1cccs1)c1ccccn1 | 3.3 | 1.6 |  | 2 | 1.68
30 | CN(C)CCC=C1c2ccccc2CCc2ccccc21 [AMITRIPTYLINE] | 8.7 | 17 |  | 24 | 0.366
31 | Cc1cc(-n2cccc2)c(S(C)(=O)=O)cc1C(=O)NC(=N)N [ENIPORIDE] | 1.1 | 2.2 |  | 2.3 | 0.492
32 | O=C1c2ccccc2S(=O)(=O)N1CCCCNC[C@H]1CCc2ccccc2O1 [REPINOTAN] | 0.21 | 1.2 |  | 1.6 | 0.132
33 | CCN1CC(CCN2CCOCC2)C(c2ccccc2)(c2ccccc2)C1=O (stereo not given) [DOXAPRAM] | 1.2 | 4.1 |  | 3.7 | 0.318
34 | CCC(=O)C1(c2cccc(O)c2)CCN(C)CC1 [KETOBEMIDONE] | 0.48 | 2.3 |  | 0.87 | 0.552
35 | OC(Cn1cncn1)(Cn1cncn1)c1ccc(F)cc1F [FLUCONAZOLE] | 0.75 | 30 |  | 40 | 0.0186
36 | NCCCNc1ccc2c(CNCCO)nn3c4c(O)ccc(O)c4c(=O)c1c23 | 12 | 32 |  | 11 | 1.08
37 | CCOC(=O)Nc1ccc(NCc2ccc(F)cc2)nc1N [FLUPIRTINE] | 1.1 | 8.5 |  | 11 | 0.096
38 | O=C1CN(/N=C/c2ccc(-c3ccc([N+](=O)[O-])cc3)o2)C(O)=N1 [DANTROLENE] | 0.37 | 10 |  | 14 | 0.0258
39 | N=C(N)c1ccc(CNC(=O)[C@@H]2CCN2C(=O)[C@H](NCC(=O)O)C2CCCCC2)cc1 | 0.23 | 1.6 |  | 2 | 0.114
40 | COc1nc(N)nc2c1ncn2[C@@H]1O[C@H](CO)[C@@H](O)[C@@H]1O [NELARABINE] | 4.9 | 0.5 |  | 1 | 4.86
41 | C#C[C@]1(OS(=O)(=O)O)CC[C@H]2[C@@H]3CCc4cc(O)ccc4[C@H]3CC[C@@]21C | 0.61 | 9.3 |  | 7.8 | 0.078
42 | COc1ccc(C(=O)Nc2ccccc2CCC2CCCCN2C)cc1 (stereo not given) [ENCAINIDE] | 2.2 | 2.6 |  | 2.8 | 0.78
43 | CC(C)(C)NCC(O)COc1ccc(NC(=O)NC2CCCCC2)cc1 (stereo not given) [TALINOLOL] | 3.3 | 11 |  | 11 | 0.294
44 | CCCCc1nc(Cl)c(CO)n1Cc1ccc(-c2ccccc2-c2nn[nH]n2)cc1 [LOSARTAN] | 0.37 | 1.8 |  | 0.75 | 0.492
45 | Cc1[nH]cnc1CN1CCc2c(c3ccccc3n2C)C1=O [ALOSETRON] | 1.1 | 1.6 |  | 2.1 | 0.522
46 | N[C@@H](CC(=O)N1CCn2c(nnc2C(F)(F)F)C1)Cc1cc(F)c(F)cc1F [SITAGLIPTIN] | 2.8 | 12 |  | 7.78 | 0.36
47 | Cc1cnc(NCCCN(C)C)c2c1[nH]c1ccc3cc(O)ccc3c12 [INTOPLICINE] | 11 | 19 |  | 11 | 1.08
48 | CCN1C[C@H]2CN(C)C[C@H](C1)C2OC(=O)c1ccc(Cl)cc1 (stereo not given in full) | 9 | 8.6 |  | 8.8 | 1.02
49 | CN(C)CCc1c[nH]c2ccc(Cn3cncn3)cc12 [RIZATRIPTAN] | 1.9 | 2.2 |  | 1.98 | 0.96
50 | CN(C)C(=O)Oc1ccc[n+](C)c1 [PYRIDOSTIGMINE] | 1.1 | 1.5 |  | 1.8 | 0.576
51 | CN1CCOC(c2ccccc2)c2ccccc2C1 (stereo not given) [NEFOPAM] | 5.6 | 5 |  | 8.1 | 0.72
52 | CCN(CC)CCNC(=O)c1cc(Cl)c(N)cc1OC [METOCLOPRAMIDE] | 3.2 | 7.2 |  | 9.4 | 0.342
53 | C[C@H]([C@](O)(Cn1cncn1)c1ccc(F)cc1F)S(C)(=O)=O [GENACONAZOLE] | 0.62 | 49 |  | 54 | 0.0114
54 | C[C@H]1c2cccc(O)c2C(=O)C2=C(O)[C@]3(O)C(=O)C(C(N)=O)=C(O)[C@@H](N(C)C)[C@@H]3[C@@H](O)[C@@H]21.O [DOXYCYCLINE] | 0.69 | 14 |  | 25 | 0.0276
55 | Nc1ncnc2c1ncn2CCOCP(=O)(O)O [ADEFOVIR] | 0.42 | 1.6 |  | 1.9 | 0.222
